Literature values as cited in patent US20080009448A1, “Peptide Derivative” (priority 2006, published 2008).
Non-standard residues stand in square brackets, D forms with d. No end group written: not given here. βAla = NCCC(=O)O

Details: non-patent references 2-7, cited from earlier work

Substance	anti-nociceptive activity compared with morphine on oral administration	anti-nociceptive activity compared with morphine on subcutaneous administration
Y[dR]F[βAla] [TAPA]	almost equal	nine times stronger
Nα-amidine-[Tyr]-[D-Arg]-[Phe]-[N-Methyl-β-Ala]-OH [ADAMB]	about 3.8 times	about 23 times
